# Data taken from patent US12029739B2, “SHP2 inhibitor and use thereof” (KANAPH THERAPEUTICS INC., priority 2021, dated 2024).
# Read-outs that look alike come from different tables or passages of the source.
# How the values were obtained:
# [1] = test system: phospho-ERK in MIA PaCa2 or H358 cells; experiment: Phospho-ERK assay (AlphaLisa); type: cell-based; settings: MIA PaCa2 or H358 cells, compound incubated 1.5 hours, read-out: IC50 (p-ERK)
# [2] = target: T1, SHP2 (full length) (Homo sapiens, UniProt Q06124); experiment: Phosphatase assay (PTPase assay) with DiFMUP substrate; type: biochemical; settings: SHP2 activated with SHP2 activating peptide; DiFMUP 80 μM, 2 hours; fluorescence; read-out: IC50 (PTPase aS say)
# T1 construct: SHP2 (full length, diluted to 100 pM final concentration in reaction buffer, BPS bioscience, US); purchased BPS bioscience, US
# T1 sequence (Q06124 1-593): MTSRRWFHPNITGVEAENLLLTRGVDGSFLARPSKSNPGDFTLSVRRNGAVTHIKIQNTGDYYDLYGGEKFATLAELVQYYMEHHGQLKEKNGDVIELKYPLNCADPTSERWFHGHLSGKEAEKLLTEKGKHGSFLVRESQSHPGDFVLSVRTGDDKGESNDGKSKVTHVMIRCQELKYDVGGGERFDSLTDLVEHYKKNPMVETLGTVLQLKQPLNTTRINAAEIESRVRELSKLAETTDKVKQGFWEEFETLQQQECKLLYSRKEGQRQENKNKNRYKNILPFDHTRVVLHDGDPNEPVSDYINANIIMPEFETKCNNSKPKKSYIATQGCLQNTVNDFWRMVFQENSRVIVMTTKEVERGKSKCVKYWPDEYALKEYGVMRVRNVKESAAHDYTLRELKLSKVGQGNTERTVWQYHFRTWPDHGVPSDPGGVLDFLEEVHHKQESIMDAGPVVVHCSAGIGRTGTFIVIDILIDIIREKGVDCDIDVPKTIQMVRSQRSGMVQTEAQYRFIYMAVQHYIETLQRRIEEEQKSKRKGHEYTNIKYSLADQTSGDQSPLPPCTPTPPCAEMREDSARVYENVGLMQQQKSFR
SMILES,IC50 ([1]; 1.5 h),IC50 [2],IC50 [1]
"COCCn1cnc2ccc(Sc3cnc(N4CCC5(CC4)Cc4scnc4[C@H]5N)c(CO)n3)c(Cl)c2c1=O [Example 170, (S)-6-((5-(4-amino-4,6-dihydrospiro[yclopenta[d]thiazole-5,4′-piperidin]-1′-yl)-6-(hydroxymethyl)pyrazin-2-yl)thio)-5-chloro-3-(2-methoxyethyl)quinazolin-4(3H)-one]",< 0.045 µM,< 0.003 µM,
"COCCn1cnc2ccc(Sc3cnc(N4CCC5(CC4)Cc4ncsc4[C@H]5N)c(C(N)=O)n3)c(Cl)c2c1=O [Example 171, (S)-3-(6-amino-4,6-dihydrospiro[cyclopenta[d]thiazole-5,4′-piperidin]-1′-yl)-6-((5-chloro-3-(2-methoxyethyl)-4-oxo-3,4-dihydroquinazolin-6-yl)thio)pyrazine-2-carboxamide]",< 0.045 µM,< 0.003 µM,
"COCCn1cnc2ccc(Sc3cnc(N4CCC5(CC4)Cc4scnc4[C@H]5N)c(C(N)=O)n3)c(Cl)c2c1=O [Example 172, (S)-3-(4-amino-4,6-dihydrospiro[cyclopenta[d]thiazole-5,4′-piperidin]-1′-yl)-6-((5-chloro-3-(2-methoxyethyl)-4-oxo-3,4-dihydroquinazolin-6-yl)thio)pyrazine-2-carboxamide]",< 0.045 µM,< 0.003 µM,
"NC(=O)c1nc(Sc2ccc3ncn(CC4CCOCC4)c(=O)c3c2Cl)cnc1N1CCC2(CC1)Cc1ncsc1[C@H]2N [Example 174, (S)-3-(6-amino-4,6-dihydrospiro[cyclopenta[d]thiazole-5,4′-piperidin]-1′-yl)-6-((5-chloro-4-oxo-3-((tetrahydro-2H-pyran-4-yl)methyl)-3,4-dihydroquinazolin-6-yl)thio)pyrazine-2-carboxamide]",< 0.045 µM,< 0.003 µM,
COC(C)Cn1cnc2ccc(Sc3ncc(N4CCC5(CC4)Cc4ncsc4[C@H]5N)nc3N)c(Cl)c2c1=O (some centres unmarked) [Example 176],< 0.045 µM,< 0.003 µM,
COC(C)Cn1cnc2ccc(Sc3ncc(N4CCC5(CC4)Cc4scnc4[C@H]5N)nc3N)c(Cl)c2c1=O (some centres unmarked) [Example 177],< 0.045 µM,< 0.003 µM,
"COCCn1cnc2ccc(Sc3n[nH]c4nc(N5CCC6(CC5)CO[C@@H](C)[C@H]6N)cnc34)c(Cl)c2c1=O [Example 178, 6-((6-((3S,4S)-4-amino-3-methyl-2-oxa-8-azaspiro[4.5]decan-8-yl)-1H-pyrazolo[3,4-b]pyrazin-3-yl)thio)-5-chloro-3-(2-methoxyethyl)quinazolin-4(3H)-one]",,< 0.003 µM,< 0.045 µM
"COCCn1cnc2ccc(Sc3cnc(N4CCC5(CCC[C@H]5N)CC4)cn3)c(Cl)c2c1=O [Example 180, (R)-6-((5-(1-amino-8-azaspiro[4.5]decan-8-yl)pyrazin-2-yl)thio)-5-chloro-3-(2-methoxyethyl)quinazolin-4(3H)-one]",0.045 to 1.5 µM,< 0.003 µM,
"COCCn1cnc2ccc(Sc3ccc(N4CCC5(CC4)CO[C@@H](C)[C@H]5N)cn3)c(Cl)c2c1=O [Example 181, 6-((5-((3S,4S)-4-amino-3-methyl-2-oxa-8-azaspiro[4.5]decan-8-yl)pyridin-2-yl)thio)-5-chloro-3-(2-methoxyethyl)quinazolin-4(3H)-one]",,0.003 to 0.1 µM,0.045 to 1.5 µM
"COCCn1cnc2ccc(Sc3cnc(N4CCC5(CC4)CO[C@@H](C)[C@H]5N)n4ccnc34)c(Cl)c2c1=O [Example 182, 6-((5-((3S,4S)-4-amino-3-methyl-2-oxa-8-azaspiro[4.5]decan-8-yl)imidazo[1,2-c]pyrimidin-8-yl)thio)-5-chloro-3-(2-methoxyethyl)quinazolin-4(3H)-one]",,0.003 to 0.1 µM,0.045 to 1.5 µM
"Cn1c(N2CCN(C[C@H](N)Cc3ccncc3)CC2)nc(N)c(Sc2cccc(Cl)c2Cl)c1=O [Example 186, (R)-6-amino-2-(4-(2-amino-3-(pyridin-4-yl)propyl)piperazin-1-yl)-5-((2,3-dichlorophenyl)thio)-3-methylpyrimidin-4(3H)-one]",0.045 to 1.5 µM,> 0.1 µM,
"Cn1c(N2CCN(CC(N)Cc3cccnc3)CC2)nc(N)c(Sc2cccc(Cl)c2Cl)c1=O (centres unmarked) [Example 188, 6-amino-2-(4-(2-amino-3-(pyridin-3-yl)propyl)piperazin-1-yl)-5-((2,3-dichlorophenyl)thio)-3-methylpyrimidin-4(3H)-one]",> 1.5 µM,> 0.1 µM,
"Cn1c(N2CCN(CC(N)CCc3ccccc3)CC2)nc(N)c(Sc2cccc(Cl)c2Cl)c1=O (centres unmarked) [Example 189, 6-amino-2-(4-(2-amino-4-phenylbutyl)piperazin-1-yl)-5-((2,3-dichlorophenyl)thio)-3-methylpyrimidin-4(3H)-one]",> 1.5 µM,> 0.1 µM,
"Cn1c(N2CCN(CC(N)c3ccccc3)CC2)nc(N)c(Sc2cccc(Cl)c2Cl)c1=O (centres unmarked) [Example 190, 6-amino-2-(4-(2-amino-2-phenylethyl)piperazin-1-yl)-5-((2,3-dichlorophenyl)thio)-3-methylpyrimidin-4(3H)-one]",> 1.5 µM,> 0.1 µM,
"Cn1c(N2CCN(C[C@@H](N)c3ccccc3)CC2)nc(N)c(Sc2cccc(Cl)c2Cl)c1=O [Example 191, (S)-6-amino-2-(4-(2-amino-2-phenylethyl)piperazin-1-yl)-5-((2,3-dichlorophenyl)thio)-3-methylpyrimidin-4(3H)-one]",> 1.5 µM,> 0.1 µM,
"Cn1c(N2CCN(CCN)CC2)nc(N)c(Sc2ccnc(Cl)c2Cl)c1=O [Example 193, 6-amino-2-(4-(2-aminoethyl)piperazin-1-yl)-5-((2,3-dichloropyridin-4-yl)thio)-3-methylpyrimidin-4(3H)-one]",> 1.5 µM,> 0.1 µM,
"Cn1c(N2CCN(CCN)CC2)nc(N)c(Sc2cccc(Cl)c2Cl)c1=O [Example 194, 6-amino-2-(4-(2-aminoethyl)piperazin-1-yl)-5-((2,3-dichlorophenyl)thio)-3-methylpyrimidin-4(3H)-one]",> 1.5 µM,> 0.1 µM,
Cn1c(N2CCN(CCN)CC2)nc(N)c(-c2cccc(Cl)c2Cl)c1=O [Example 195],> 1.5 µM,> 0.1 µM,
Cn1c(N2CCN[C@@H](CN)C2)nc(N)c(Sc2cccc(Cl)c2Cl)c1=O [Example 196],> 1.5 µM,> 0.1 µM,
"Cn1c(N2CCN[C@H](CN)C2)nc(N)c(Sc2cccc(Cl)c2Cl)c1=O [Example 197, (R)-6-amino-2-(3-(aminomethyl)piperazin-1-yl)-5-((2,3-dichlorophenyl)thio)-3-methylpyrimidin-4(3H)-one]",,0.003 to 0.1 µM,0.045 to 1.5 µM
"Cn1c(N2CCOC(CN)C2)nc(N)c(Sc2cccc(Cl)c2Cl)c1=O (centres unmarked) [Example 198, 6-amino-2-(2-(aminomethyl)morpholino)-5-((2,3-dichlorophenyl)thio)-3-methylpyrimidin-4(3H)-one]",> 1.5 µM,> 0.1 µM,
"Cn1c(N2CCN(CCCN)CC2)nc(N)c(Sc2cccc(Cl)c2Cl)c1=O [Example 199, 6-amino-2-(4-(3-aminopropyl)piperazin-1-yl)-5-((2,3-dichlorophenyl)thio)-3-methylpyrimidin-4(3H)-one]",> 1.5 µM,> 0.1 µM,
"Cn1c(N2CCCN(CCN)CC2)nc(N)c(Sc2cccc(Cl)c2Cl)c1=O [Example 200, 6-amino-2-(4-(2-aminoethyl)-1,4-diazepan-1-yl)-5-((2,3-dichlorophenyl)thio)-3-methylpyrimidin-4(3H)-one]",> 1.5 µM,> 0.1 µM,
"Cn1c(N2CCCN(CCCN)CC2)nc(N)c(Sc2cccc(Cl)c2Cl)c1=O [Example 201, 6-amino-2-(4-(3-aminopropyl)-1,4-diazepan-1-yl)-5-((2,3-dichlorophenyl)thio)-3-methylpyrimidin-4(3H)-one]",> 1.5 µM,> 0.1 µM,
"CC(N)CN1CCN(c2nc(N)c(Sc3cccc(Cl)c3Cl)c(=O)n2C)CC1 (centres unmarked) [Example 202, 6-amino-2-(4-(2-aminopropyl)piperazin-1-yl)-5-((2,3-dichlorophenyl)thio)-3-methylpyrimidin-4(3H)-one]",> 1.5 µM,> 0.1 µM,
